# Test results as given in article PMC8041433 (Environmental Health Perspectives, 2021).
# Several values for one entry are separate records, joined by “and”; a condition that tells them apart may be missing. Identical values can stand only once. Counter-ions that a name gives are not always drawn. Like-named read-outs stand apart in the source and are kept apart here.
# Tests used:
# recombinant human AChE [1] = target: T1, recombinant human AChE (Homo sapiens, UniProt P22303); assay: biochemical
# T1 sequence (P22303 32-614): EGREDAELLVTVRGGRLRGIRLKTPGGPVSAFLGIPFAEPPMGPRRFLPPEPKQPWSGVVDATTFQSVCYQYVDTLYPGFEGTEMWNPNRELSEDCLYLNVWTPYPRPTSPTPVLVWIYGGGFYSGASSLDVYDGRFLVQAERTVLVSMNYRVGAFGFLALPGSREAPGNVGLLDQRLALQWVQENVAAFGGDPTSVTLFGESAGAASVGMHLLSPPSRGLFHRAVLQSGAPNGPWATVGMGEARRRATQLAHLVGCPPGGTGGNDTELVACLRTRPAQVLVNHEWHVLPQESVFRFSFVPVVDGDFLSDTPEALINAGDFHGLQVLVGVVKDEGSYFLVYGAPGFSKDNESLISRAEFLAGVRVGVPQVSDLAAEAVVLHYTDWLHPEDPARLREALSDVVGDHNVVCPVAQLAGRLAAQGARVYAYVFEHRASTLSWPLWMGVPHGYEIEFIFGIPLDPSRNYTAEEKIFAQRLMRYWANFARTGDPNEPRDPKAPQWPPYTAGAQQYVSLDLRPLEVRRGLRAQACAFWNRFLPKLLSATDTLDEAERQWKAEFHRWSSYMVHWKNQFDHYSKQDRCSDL
# recombinant human AChE [2] = target: T1, recombinant human AChE
# AChE in SH-SY5Y cells = AChE in SH-SY5Y cells (Homo sapiens, UniProt P22303); assay: cell-based
# Sequence of AChE in SH-SY5Y cells (P22303 32-614): as above
Compound,CC-v2 (curve classes) (recombinant human AChE [1]),Efficacy (recombinant human AChE [1]),IC50 (recombinant human AChE [1]; read-out: IC50) [µM],CC-v2 (curve classes) (recombinant human AChE [2]),Efficacy (recombinant human AChE [2]),CC-v2 (curve classes) (AChE in SH-SY5Y cells),IC50 (AChE in SH-SY5Y cells; read-out: IC50),IC50 (recombinant human AChE [1]; IC50 (uM)),IC50 (AChE in SH-SY5Y cells; IC50 (uM)),AChE inhibition (result in words) (recombinant human AChE [1]),IC50 (recombinant human AChE [2]) [µM]
"Cc1ccc2c(c1)OCC(=O)CO2 [7-Methyl-2H-1,5-benzodioxepin-3(4H)-one]",-2.2,-48.628,79.6,4,0,-2.1,35.6 µM and 31.7 µM,–,–,–,–
CCN=C1C=CC(=C(c2ccc(N(CC)CC)cc2)c2ccc(N(CC)CC)cc2)c2ccccc21.Cl [Basic Blue 7],-1.1,-96.089,19.9,4,0,-2.1,62.9 µM and 70.6 µM and 79.2 µM,–,–,–,–
CCSCc1ccccc1OC(=O)NC [Ethiofencarb],-1.1,-87.381,–,4,-27.523,-1.1 and -2.1,–,20 µM,10 µM and 17.8 µM,–,–
Cc1ccc(S(=O)(=O)Oc2ccc(N=Nc3ccc(-c4ccc(N=Nc5c(O)ccc6cc(S(=O)(=O)[O-])cc(S(=O)(=O)[O-])c56)c(C)c4)cc3C)cc2)cc1.[Na+].[Na+] [C.I. Acid Red 114],-1.1,–,–,4,22.5 and 26.805,4,–,–,–,–,–
C[n+]1cc2c3c(ccc2c2ccc4cc5c(cc4c21)OCO5)OCO3 [Sanguinarine],-2.2,-68.744,–,4,-7.894,-2.1,–,16.9 µM,15.1 µM and 12 µM and 10.7 µM,–,–
CNC(=O)/C=C(\C)OP(=O)(OC)OC [Monocrotophos],-2.2,-46.284,–,4,-13.186,-2.1,–,63.3 µM,39.9 µM and 35.6 µM,–,–
CCOP(=S)(OCC)SCSCC [Phorate],4,-23.652,–,4,0,-2.1,–,–,63.3 µM and 71 µM,–,–
CNC(=O)O/N=C(\C)C(C)S(C)(=O)=O (stereo not shown) [Butoxycarboxim],-2.2,-49.747,–,4,0,-2.1,–,794 µM,355 µM and 398 µM and 447 µM,–,–
O=S1OC[C@@H]2[C@H](CO1)[C@]1(Cl)C(Cl)=C(Cl)[C@@]2(Cl)C1(Cl)Cl (stereo partly shown) [Endosulfan I],-1.1,-101.477,–,-3,-117.846,-1.1,–,–,–,–,–
COc1ccc2c(c1OC)CN1CCc3cc4c(cc3[C@@H]1C2)OCO4 [Canadine],-1.1,-74.441,–,-3,-45.32,-1.1 and -2.1,–,–,8.71 µM and 11 µM and 9.77 µM,–,–
O=C(C[S+]([O-])Cc1ccco1)NC/C=C\COc1cc(CN2CCCCC2)ccn1 (stereo not shown) [Lafutidine],-2.2,-35.592,–,4,0,-2.1,–,34.7 µM,38.9 µM and 27.5 µM and 17.4 µM,–,–
CN(C)c1ccc(C(=C2C=CC(=[N+](C)C)C=C2)c2ccc(N(C)C)cc2)cc1.[Cl-] [Methylrosaniline chloride],-2.1,-113.882,30.9,4,0,–,38.9 µM,–,–,–,–
CCCCCC1Nc2cc(C(F)(F)F)c(S(N)(=O)=O)cc2S(=O)(=O)N1 (stereo not shown) [Penflutizide],-2.2,-58.761,–,4,-21.532,-2.1,–,21.9 µM,15.5 µM and 13.8 µM,–,–
CCOC(=O)COc1ccc2c(C)c(CCN(CC)CC)c(=O)oc2c1Cl.Cl [Cloricromen hydrochloride],-2.1,-70.529,15.5,4,-27.609,-2.1,13.8 µM and 15.5 µM,–,–,–,–
CNP(=O)(OC)Oc1ccc(C(C)(C)C)cc1Cl (stereo not shown) [Crufomate],-2.2,-70.92,–,4,-16.11,-2.1,–,79.6 µM,71 µM and 39.9 µM and 63.3 µM,–,–
COCCCN1CCC(NC(=O)c2cc(Cl)c(N)c3c2OCC3)CC1 [Prucalopride],-2.4,-37.421,–,4,0,-2.1,–,–,17.4 µM,–,–
COc1cc2nc(N3CCN(C(=O)c4ccco4)CC3)nc(N)c2cc1OC [Prazosin],–,-14.406,–,–,0,–,–,–,15.1 µM and 16.9 µM and 9.52 µM,–,–

Compound,CC-v2 (curve classes) (recombinant human AChE [1]),Efficacy (recombinant human AChE [1]),IC50 (recombinant human AChE [1]; read-out: IC50) [µM],CC-v2 (curve classes) (recombinant human AChE [2]),Efficacy (recombinant human AChE [2]),CC-v2 (curve classes) (AChE in SH-SY5Y cells),IC50 (AChE in SH-SY5Y cells; read-out: IC50),IC50 (recombinant human AChE [1]; IC50 (uM)),IC50 (AChE in SH-SY5Y cells; IC50 (uM)),AChE inhibition (result in words) (recombinant human AChE [1]),IC50 (recombinant human AChE [2]) [µM]
N#Cc1sc2c(=O)c3ccccc3c(=O)c=2sc1C#N [Dithianon],4,-13.233,–,4,0,-2.1,–,–,44.8 µM and 63.3 µM,–,–
CCOP(=S)(Oc1ccc([N+](=O)[O-])cc1)c1ccccc1 (stereo not shown) [EPN],4,0,–,-1.1,-95.341,4,–,–,–,did not show effects,–
C[C@H]1[C@@H]2Cc3ccc(O)cc3[C@@]1(C)CCN2C.C[C@H]1[C@@H]2Cc3ccc(O)cc3[C@@]1(C)CCN2C.O=C(O)/C=C/C(=O)O [(+)-Metazocine fumarate (2:1)],-2.1,-92.558,33.9,-2.1,-75.846,-1.1,8.52 µM and 10.7 µM and 15.2 µM,–,–,–,191
O=C1c2c(O)ccc(Nc3ccc(CCO)cc3)c2C(=O)c2c([N+](=O)[O-])ccc(O)c21 [C.I. Disperse Blue 27],-1.2,-62.368,20,4,0,-1.1,8.94 µM and 10 µM,–,–,–,–
CN1CCCN=C1/C=C/c1cccs1.O=C(O)C(O)C(O)C(=O)O [Pyrantel tartrate],-2.4,-36.527,38.9,4,0,-2.1,30.9 µM and 27.5 µM and 15.5 µM,–,–,–,–
N=C(N)NC(=O)c1nc(Cl)c(N)nc1N [Amiloride hydrochloride],4,-15.372,–,4,0,-2.1,–,–,32.9 µM,–,–
CN(C)C(=S)SSC(=S)N(C)C [Thiram],4,–,–,4,–,–,–,–,38.9 µM and 88.1 µM and 78.5 µM and 89.4 µM and 71 µM,–,–
[H]/N=C(\N/C(=N/[H])NCCCCCCNC(=N)NC(=N)Nc1ccc(Cl)cc1)Nc1ccc(Cl)cc1 [Chlorhexidine dihydrochloride],-1.1,-89.988,–,4,14.978,–,–,22.9 µM,72.3 µM and 64.4 µM,–,–
CCCCC(CC)CNC(=N)NC(=N)NCCCCCCNC(=N)NC(=N)NCC(CC)CCCC (stereo not shown) [Alexidine dihydrochloride],-1.1,-96.324,–,4,11.253,–,–,17.4 µM,43.6 µM,–,–
CC(C)C[C@H]1C(=O)N2CCC[C@H]2[C@]2(O)O[C@](NC(=O)[C@@H]3C=C4c5cccc6[nH]c(Br)c(c56)C[C@H]4N(C)C3)(C(C)C)C(=O)N12 [Bromocriptine mesylate],-1.1,-70.597,–,4,0,-1.1,–,–,5.38 µM and 2.7 µM,–,–
COc1cc(C(=O)NCc2ccc(OCCN(C)C)cc2)cc(OC)c1OC [Trimethobenzamide hydrochloride],-1.1,-75.922,–,4,-14.276,-2.1 and -1.1,–,–,–,–,–
CN1C[C@H](C(=O)N[C@]2(C)O[C@@]3(O)[C@@H]4CCCN4C(=O)[C@H](Cc4ccccc4)N3C2=O)C=C2c3cccc4[nH]cc(c34)C[C@H]21 [Ergotamine D-tartrate],–,–,–,4,0,-1.1,–,29.5 µM and 5.67 µM,8.32 µM and 1.01 µM and 3.72 µM and 1.13 µM and 0.898 µM,–,–
"CCN1C(=CC=Cc2sc3ccccc3[n+]2CC)Sc2ccccc21.[I-] [3,3'-Diethylthiacarbocyanine iodide]",-3,-76.506,19,4,0,-2.1 and -2.2,10.7 µM and 15.1 µM,–,–,–,–
COP(=O)(OC)O/C(=C\Cl)c1cc(Cl)c(Cl)cc1Cl [Z-Tetrachlorvinphos],-2.4,-30.752,–,4,0,-2.2,44.8 µM,71 µM,63.3 µM and 79.6 µM,–,–
CC[C@@H](CO)NC(=O)[C@@H]1C=C2c3cccc4c3c(cn4C)C[C@H]2N(C)C1 [Methysergide],-1.1,-98.745,–,4,-23.381,-1.1,–,4.36 µM,0.389 µM and 0.245 µM and 2.45 µM,–,–
COc1cc2nc(N3CCN(C(=O)C4CCCO4)CC3)nc(N)c2cc1OC (stereo not shown) [Terazosin hydrochloride],-2.2,-49.646,–,4,0,–,–,38.9 µM,30.9 µM and 27.5 µM,–,–
